According to the supplement of paper PMC10307832:

What was measured:
Test in all cases: relative viability (nuclei count vs DMSO), 5 days (fraction); higher = more cells survive
201T = tested on: 201T
Method in brief: (§1)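 Dosing by pin tool came one day after lung cancer cell lines were seeded in 1536-well plates, using either one drug or a fixed anchor-drug dose plus five library-drug doses (not always all listed) in √10 steps. After 5 days, nuclei were counted on 4× images. Relative viability is treated-well nuclei count divided by vehicle-well nuclei count, and values are medians of duplicate plates.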

COR-L 105 = tested on: COR-L 105
Method in brief: as §1

COR-L23 = tested on: COR-L23
Method in brief: as §1

EMC-BAC-2 = tested on: EMC-BAC-2
Method in brief: as §1

HCC-15 = tested on: HCC-15
Method in brief: as §1

HCC-366 = tested on: HCC-366
Method in brief: as §1

LC-2-ad = tested on: LC-2-ad
Method in brief: as §1

NCI-H1395 = tested on: NCI-H1395
Method in brief: as §1

NCI-H1437 = tested on: NCI-H1437
Method in brief: as §1

NCI-H1755 = tested on: NCI-H1755
Method in brief: as §1

NCI-H1792 = tested on: NCI-H1792
Method in brief: as §1

NCI-H1793 = tested on: NCI-H1793
Method in brief: as §1

NCI-H1915 = tested on: NCI-H1915
Method in brief: as §1

NCI-H2009 = tested on: NCI-H2009
Method in brief: as §1

NCI-H2023 = tested on: NCI-H2023
Method in brief: as §1

NCI-H2342 = tested on: NCI-H2342
Method in brief: as §1

NCI-H2347 = tested on: NCI-H2347
Method in brief: as §1

NCI-H23 = tested on: NCI-H23
Method in brief: as §1

NCI-H358 = tested on: NCI-H358
Method in brief: as §1

NCI-H650 = tested on: NCI-H650
Method in brief: as §1

PC-14 = tested on: PC-14
Method in brief: as §1

SK-MES-1 = tested on: SK-MES-1
Method in brief: as §1

With `CN1CCN(CCOc2cc(OC3CCOCC3)c3c(Nc4c(Cl)ccc5c4OCO5)ncnc3c2)CC1` [Saracatinib] + Nc1ncn([C@H]2C[C@H](O)[C@@H](CO)O2)c(=O)n1 [Decitabine] (partner 2 µM) the relative viability (201T; first compound 0.02 µM) was 0.832, the relative viability (201T; first compound 0.2 µM) was 0.644 and the relative viability (201T; first compound 0.6325 µM) was 0.75. It also gave a relative viability (201T; first compound 2 µM) of 0.71, a relative viability (COR-L 105; first compound 0.02 µM) of 0.719 and a relative viability (COR-L 105; first compound 0.2 µM) of 0.485. It also gave a relative viability (COR-L 105; first compound 0.6325 µM) of 0.635, a relative viability (COR-L 105; first compound 2 µM) of 0.458 and a relative viability (COR-L23; first compound 0.02 µM) of 0.44. It also gave a relative viability (COR-L23; first compound 0.2 µM) of 0.385, a relative viability (COR-L23; first compound 0.6325 µM) of 0.419 and a relative viability (COR-L23; first compound 2 µM) of 0.335. It also gave a relative viability (EMC-BAC-2; first compound 0.02 µM) of 1.05, a relative viability (EMC-BAC-2; first compound 0.2 µM) of 0.922 and a relative viability (EMC-BAC-2; first compound 0.6325 µM) of 1.02. For the same compound, the relative viability (EMC-BAC-2; first compound 2 µM) was 0.91, the relative viability (HCC-15; first compound 0.02 µM) was 0.73 and the relative viability (HCC-15; first compound 0.2 µM) was 0.62. The relative viability (HCC-15; first compound 0.6325 µM) was 0.605, the relative viability (HCC-15; first compound 2 µM) was 0.557 and the relative viability (HCC-366; first compound 0.02 µM) was 0.321. The relative viability (HCC-366; first compound 0.2 µM) was 0.148, the relative viability (HCC-366; first compound 0.6325 µM) was 0.293 and the relative viability (HCC-366; first compound 2 µM) was 0.194. For the same compound, the relative viability (LC-2-ad; first compound 0.02 µM) was 0.79, the relative viability (LC-2-ad; first compound 0.2 µM) was 0.751 and the relative viability (LC-2-ad; first compound 0.6325 µM) was 0.779. For the same compound, the relative viability (LC-2-ad; first compound 2 µM) was 0.789, the relative viability (NCI-H1395; first compound 0.02 µM) was 0.752 and the relative viability (NCI-H1395; first compound 0.2 µM) was 0.753. The relative viability (NCI-H1395; first compound 0.6325 µM) was 0.737, the relative viability (NCI-H1395; first compound 2 µM) was 0.635 and the relative viability (NCI-H1437; first compound 0.02 µM) was 0.608. The relative viability (NCI-H1437; first compound 0.2 µM) was 0.601, the relative viability (NCI-H1437; first compound 0.6325 µM) was 0.64 and the relative viability (NCI-H1437; first compound 2 µM) was 0.622. For the same compound, the relative viability (NCI-H1755; first compound 0.02 µM) was 0.711, the relative viability (NCI-H1755; first compound 0.2 µM) was 0.604 and the relative viability (NCI-H1755; first compound 0.6325 µM) was 0.72. The relative viability (NCI-H1755; first compound 2 µM) was 0.691, the relative viability (NCI-H1792; first compound 0.02 µM) was 0.597 and the relative viability (NCI-H1792; first compound 0.2 µM) was 0.464. It also gave a relative viability (NCI-H1792; first compound 0.6325 µM) of 0.687, a relative viability (NCI-H1792; first compound 2 µM) of 0.522 and a relative viability (NCI-H1793; first compound 0.02 µM) of 0.543. For the same compound, the relative viability (NCI-H1793; first compound 0.2 µM) was 0.338, the relative viability (NCI-H1793; first compound 0.6325 µM) was 0.504 and the relative viability (NCI-H1793; first compound 2 µM) was 0.403. For the same compound, the relative viability (NCI-H1915; first compound 0.02 µM) was 0.245, the relative viability (NCI-H1915; first compound 0.2 µM) was 0.264 and the relative viability (NCI-H1915; first compound 0.6325 µM) was 0.255. It also gave a relative viability (NCI-H1915; first compound 2 µM) of 0.237, a relative viability (NCI-H2009; first compound 0.02 µM) of 0.406 and a relative viability (NCI-H2009; first compound 0.2 µM) of 0.35. It also gave a relative viability (NCI-H2009; first compound 0.6325 µM) of 0.35, a relative viability (NCI-H2009; first compound 2 µM) of 0.322 and a relative viability (NCI-H2023; first compound 0.02 µM) of 0.245. The relative viability (NCI-H2023; first compound 0.2 µM) was 0.176, the relative viability (NCI-H2023; first compound 0.6325 µM) was 0.204 and the relative viability (NCI-H2023; first compound 2 µM) was 0.222. The relative viability (NCI-H2342; first compound 0.02 µM) was 0.791, the relative viability (NCI-H2342; first compound 0.2 µM) was 0.677 and the relative viability (NCI-H2342; first compound 0.6325 µM) was 0.673. The relative viability (NCI-H2342; first compound 2 µM) was 0.656, the relative viability (NCI-H2347; first compound 0.02 µM) was 0.629 and the relative viability (NCI-H2347; first compound 0.2 µM) was 0.538. The relative viability (NCI-H2347; first compound 0.6325 µM) was 0.595, the relative viability (NCI-H2347; first compound 2 µM) was 0.578 and the relative viability (NCI-H23; first compound 0.02 µM) was 0.208. The relative viability (NCI-H23; first compound 0.6325 µM) was 0.29, the relative viability (NCI-H23; first compound 2 µM) was 0.212 and the relative viability (NCI-H358; first compound 0.02 µM) was 0.224. For the same compound, the relative viability (NCI-H358; first compound 0.2 µM) was 0.198, the relative viability (NCI-H358; first compound 0.6325 µM) was 0.179 and the relative viability (NCI-H358; first compound 2 µM) was 0.146. For the same compound, the relative viability (NCI-H650; first compound 0.02 µM) was 0.319, the relative viability (NCI-H650; first compound 0.2 µM) was 0.3 and the relative viability (NCI-H650; first compound 0.6325 µM) was 0.295. For the same compound, the relative viability (NCI-H650; first compound 2 µM) was 0.288, the relative viability (PC-14; first compound 0.02 µM) was 0.219 and the relative viability (PC-14; first compound 0.2 µM) was 0.182. For the same compound, the relative viability (PC-14; first compound 0.6325 µM) was 0.158, the relative viability (PC-14; first compound 2 µM) was 0.118 and the relative viability (SK-MES-1; first compound 0.02 µM) was 0.353. It also gave a relative viability (SK-MES-1; first compound 0.2 µM) of 0.352, a relative viability (SK-MES-1; first compound 0.6325 µM) of 0.36 and a relative viability (SK-MES-1; first compound 2 µM) of 0.203.
